Results published in patent US20240270740A1, “INHIBITORS OF CYCLIC GMP-AMP SYNTHASE AND USES THEREOF” (Ventus Therapeutics U.S., Inc., priority 2022, published 2024).

How the values were obtained:
hcGAS [1] = molecular target: T1, hcGAS (Homo sapiens, UniProt Q8N884); test: hcGAS Kinase-Glo assay (ATP depletion); assay type: biochemical; conditions: 40 nM hcGAS, 100 μM ATP, 100 μM GTP, 25 nM dsDNA, 3 h incubation
Experimental: cGAS catalyzes the cyclization of ATP and GTP to produce cGAMP, which is the activating ligand of STING. Human cGAS (hcGAS) inhibition can thus be quantified by measuring how much cGAMP is formed either indirectly, by monitoring ATP-depletion as in the hcGAS Kinase-Glo assay (as described below), or directly, such as using the hcGAS LCMS assay (as described below).
(i) hcGAS Kinase-Glo Assay
Compounds were tested for their human-cGAS […] inhibition activity using the methodology reported in Lama et al., “Development of human cGAS-specific small molecule inhibitors for repression of dsDNA-triggered interferon expression”, Nature Communications 10, Article number: 2261 (2019), with slight changes to some conditions as shown in Table B.
The results of the assay, expressed in IC50 values, are reported in Table D with the following designations: A represents an IC50 value<0.01 μM; B represents an IC50 value≥0.01 μM and <0.03 μM; C represents an IC50 value≥0.03 μM and <0.1 μM; D represents an IC50 value≥0.1.

hcGAS [2] = molecular target: T1, hcGAS; test: hcGAS LCMS assay (direct measurement of cGAMP production); assay type: biochemical; conditions: 0.5 nM hcGAS, 100 μM ATP, 100 μM GTP, 25 nM dsDNA, 4 h incubation
Method in brief: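 Direct LC/MS readout of cGAMP formed: 4-h enzyme–substrate incubation with compound, stopped by acetonitrile/water quench carrying isotope-labelled cGAMP (0.15 mM) as standard. Potency reported as IC50 ranges.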

T1 sequence (Q8N884 whole entry): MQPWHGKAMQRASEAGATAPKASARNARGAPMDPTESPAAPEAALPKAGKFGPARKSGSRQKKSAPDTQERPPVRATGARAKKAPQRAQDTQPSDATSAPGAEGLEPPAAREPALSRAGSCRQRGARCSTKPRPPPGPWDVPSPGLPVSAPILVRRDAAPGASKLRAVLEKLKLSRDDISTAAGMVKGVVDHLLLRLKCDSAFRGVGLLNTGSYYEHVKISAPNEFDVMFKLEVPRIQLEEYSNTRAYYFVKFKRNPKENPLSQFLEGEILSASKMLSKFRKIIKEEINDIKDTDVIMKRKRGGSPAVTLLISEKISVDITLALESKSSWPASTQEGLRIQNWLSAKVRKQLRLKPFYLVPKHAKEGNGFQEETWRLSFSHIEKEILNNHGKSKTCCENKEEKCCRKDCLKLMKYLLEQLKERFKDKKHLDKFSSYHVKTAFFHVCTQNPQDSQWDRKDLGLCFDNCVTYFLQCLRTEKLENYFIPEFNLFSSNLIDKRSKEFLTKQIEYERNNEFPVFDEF

Row | IC50 (hcGAS [1]) [µM] | IC50 (hcGAS [2]) [µM] | Compound
1 | 0.01 to 0.03 | 0.005 to 0.02 | COc1c(N2C[C@H](OC)[C@H](OC)C2)cc(C(=O)Nc2nnc(-n3nccc3C)s2)oc1=O [Compound 59, 4-((3S,4R)-3,4-dimethoxypyrrolidin-1-yl)-3-methoxy-N-R(5-(5-methyl-1H-pyrazol-1-yl)-1,3,4-thiadiazol-2-yl)-2-oxo-2H-pyran-6-carboxamide]
2 | 0.01 to 0.03 | 0.005 to 0.02 | COc1c(NC[C@H](C)OC)cc(C(=O)Nc2nnc(-n3nccc3C)s2)oc1=O [Compound 187, (S)-3-methoxy-4-((2-methoxypropyl)amino)-N-(5-(5-methyl-1H-pyrazol-1-yl)-1,3,4-thiadiazol-2-yl)-2-oxo-2H-pyran-6-carboxamide]
3 | 0.01 to 0.03 | 0.005 to 0.02 | COc1c(NC23CC(OC)(C2)C3)cc(C(=O)Nc2nnc(-n3nccc3C)s2)oc1=O [Compound 111, 3-methoxy-4-((3-methoxybicyclo[1.1.1]pentan-1-yl)amino)-N-(5-(5-methyl-1H-pyrazol-1-yl)-1,3,4-thiadiazol-2-yl)-2-oxo-2H-pyran-6-carboxamide]
4 | 0.01 to 0.03 | < 0.005 | COCCNc1cc(C(=O)Nc2nnc(-c3c(Cl)ccn3C)s2)oc(=O)c1OC [Compound 127, N-(5-(3-chloro-1-methyl-1H-pyrrol-2-yl)-1,3,4-thiadiazol-2-yl)-3-methoxy-4-((2-methoxyethyl)amino)-2-oxo-2H-pyran-6-carboxamide]
5 | 0.03 to 0.1 | 0.005 to 0.02 | COc1c(NC(C)C)cc(C(=O)Nc2nnc(-n3nccc3C)s2)oc1=O [Compound 179, 4-(isopropylamino)-5-methoxy-N-[5-(5-methylpyrazol-1-yl)-1,3,4-thiadiazol-2-yl]-6-oxopyran-2-carboxamide]
6 | < 0.01 | 0.005 to 0.02 | COc1c(N2C[C@H](OC)[C@@H](O)C2)cc(C(=O)Nc2nnc(-n3nccc3C)s2)oc1=O (racemic) [Rac-91, 4-((3S,4S)-3-hydroxy-4-methoxypyrrolidin-1-yl)-3-methoxy-N-(5-(5-methyl-1H-pyrazol-1-yl)-1,3,4-thiadiazol-2-yl)-2-oxo-2H-pyran-6-carboxamide]
7 | 0.01 to 0.03 | 0.005 to 0.02 | COc1c(N[C@H]2CC[C@@H](O)C2)cc(C(=O)Nc2nnc(-n3nccc3C)s2)oc1=O (racemic) [Rac-61, 4-(((1S,3R)-3-hydroxycyclopentyl)amino)-3-methoxy-N-(5-(5-methyl-1H-pyrazol-1-yl)-1,3,4-thiadiazol-2-yl)-2-oxo-2H-pyran-6-carboxamide]
8 | 0.01 to 0.03 | 0.005 to 0.02 | COc1c(NCCC#N)cc(C(=O)Nc2nnc(-n3nccc3C)s2)oc1=O [Compound 176, 4-((2-cyanoethyl)amino)-3-methoxy-N-(5-(5-methyl-1H-pyrazol-1-yl)-1,3,4-thiadiazol-2-yl)-2-oxo-2H-pyran-6-carboxamide]
9 | 0.01 to 0.03 | 0.005 to 0.02 | COc1c(NC23CC(C2)C3)cc(C(=O)Nc2nnc(-n3nccc3C)s2)oc1=O [Compound 182, 4-(bicyclo[1.1.1]pentan-1-ylamino)-3-methoxy-N-(5-(5-methyl-1H-pyrazol-1-yl)-1,3,4-thiadiazol-2-yl)-2-oxo-2H-pyran-6-carboxamide]
10 | 0.01 to 0.03 | 0.005 to 0.02 | COc1c(N2CC[C@H](S(C)(=O)=O)C2)cc(C(=O)Nc2nnc(-n3nccc3C)s2)oc1=O [Compound 60, (S)-3-methoxy-N-(5-(5-methyl-1H-pyrazol-1-yl)-1,3,4-thiadiazol-2-yl)-4-(3-(methylsulfonyl)pyrrolidin-1-yl)-2-oxo-2H-pyran-6-carboxamide]
11 | 0.01 to 0.03 | 0.005 to 0.02 | COc1c(N[C@H]2CCCC[C@H]2O)cc(C(=O)Nc2nnc(-n3nccc3C)s2)oc1=O (racemic) [Rac-189, 4-(((1S,2R)-2-hydroxycyclohexyl)amino)-3-methoxy-N-(5-(5-methyl-1H-pyrazol-1-yl)-1,3,4-thiadiazol-2-yl)-2-oxo-2H-pyran-6-carboxamide]
12 | ≥ 0.1 |  | COCCNc1cc(C(=O)Nc2nnc(-n3nccc3Cl)s2)oc(=O)c1OC [Compound 148, N-[5-(5-chloropyrazol-1-yl)-1,3,4-thiadiazol-2-yl]-5-methoxy-4-[(2-methoxyethyl)amino]-6-oxopyran-2-carboxamide]
13 | 0.01 to 0.03 |  | COc1c(N2CC[C@@H](CO)C2)cc(C(=O)Nc2nnc(-n3nccc3C)s2)oc1=O [Compound 88, (R)-4-(3-(hydroxymethyl)pyrrolidin-1-yl)-3-methoxy-N-(5-(5-methyl-1H-pyrazol-1-yl)-1,3,4-thiadiazol-2-yl)-2-oxo-2H-pyran-6-carboxamide]
14 | 0.03 to 0.1 |  | COCCNc1cc(C(=O)Nc2nnc(-c3sncc3Cl)s2)oc(=O)c1OC [Compound 139, N-(5-(4-chloroisothiazol-5-yl)-1,3,4-thiadiazol-2-yl)-3-methoxy-4-((2-methoxyethyl)amino)-2-oxo-2H-pyran-6-carboxamide]
15 | 0.01 to 0.03 |  | COC[C@@H]1CCCN1c1cc(C(=O)Nc2nnc(-n3nccc3C)s2)oc(=O)c1OC [Compound 39, (S)-3-methoxy-4-(2-(methoxymethyl)pyrrolidin-1-yl)-N-(5-(5-methyl-1H-pyrazol-1-yl)-1,3,4-thiadiazol-2-yl)-2-oxo-2H-pyran-6-carboxamide]
16 | ≥ 0.1 |  | COc1c(NCCO)cc(C(=O)Nc2nnc(-c3sccc3Cl)s2)oc1=O [Compound 147, N-[5-(3-chlorothiophen-2-yl)-1,3,4-thiadiazol-2-yl]-4-[(2-hydroxyethyl)amino]-5-methoxy-6-oxopyran-2-carboxamide]
17 | 0.01 to 0.03 |  | COc1c(NCC(F)F)cc(C(=O)Nc2nnc(-n3nccc3C)s2)oc1=O [Compound 89, 4-((2,2-difluoroethyl)amino)-3-methoxy-N-(5-(5-methyl-1H-pyrazol-1-yl)-1,3,4-thiadiazol-2-yl)-2-oxo-2H-pyran-6-carboxamide]
18 | 0.03 to 0.1 |  | COc1c(N2CCC[C@@H]2CO)cc(C(=O)Nc2nnc(-n3nccc3C)s2)oc1=O [Compound 34, (R)-4-(2-(hydroxymethyl)pyrrolidin-1-yl)-5-methoxy-N-(5-(5-methyl-1H-pyrazol-1-yl)-1,3,4-thiadiazol-2-yl)-6-oxo-6H-pyran-2-carboxamide]
19 | 0.01 to 0.03 |  | COc1c(N[C@H]2CC[C@H](O)CC2)cc(C(=O)Nc2nnc(-n3nccc3C)s2)oc1=O [Compound 217]
20 | 0.01 to 0.03 |  | COc1c(N[C@@H]2CC[C@H]2O)cc(C(=O)Nc2nnc(-n3nccc3C)s2)oc1=O (racemic) [Rac-37, 4-(((1R,2R)-2-hydroxycyclobutyl)amino)-3-methoxy-N-(5-(5-methyl-1H-pyrazol-1-yl)-1,3,4-thiadiazol-2-yl)-2-oxo-2H-pyran-6-carboxamide]
21 | 0.03 to 0.1 |  | COc1c(N[C@H]2C[C@@H](O)C2)cc(C(=O)Nc2nnc(-n3nccc3C)s2)oc1=O [Compound 65, 4-(((1,3-cis)-3-hydroxycyclobutyl)amino)-3-methoxy-N-(5-(5-methyl-1H-pyrazol-1-yl)-1,3,4-thiadiazol-2-yl)-2-oxo-2H-pyran-6-carboxamide]
22 | 0.03 to 0.1 |  | COc1c(N[C@H]2CCC[C@@H]2O)cc(C(=O)Nc2nnc(-n3nccc3C)s2)oc1=O (racemic) [Rac-15, 4-(((1S,2S)-2-hydroxycyclopentyl)amino)-3-methoxy-N-(5-(5-methyl-1H-pyrazol-1-yl)-1,3,4-thiadiazol-2-yl)-2-oxo-2H-pyran-6-carboxamide]
23 | 0.03 to 0.1 |  | COc1c(N[C@H](C)CO)cc(C(=O)Nc2nnc(-n3nccc3C)s2)oc1=O [Compound 25, (R)-4-((1-hydroxypropan-2-yl)amino)-3-methoxy-N-(5-(5-methyl-1H-pyrazol-1-yl)-1,3,4-thiadiazol-2-yl)-2-oxo-2H-pyran-6-carboxamide]
24 | ≥ 0.1 |  | COCCN(CCOC)c1cc(C(=O)Nc2nnc(-n3nccc3C)s2)oc(=O)c1OC [Compound 63, 4-(bis(2-methoxyethyl)amino)-3-methoxy-N-(5-(5-methyl-1H-pyrazol-1-yl)-1,3,4-thiadiazol-2-yl)-2-oxo-2H-pyran-6-carboxamide]
25 | 0.03 to 0.1 |  | COCCCNc1cc(C(=O)Nc2nnc(-n3nccc3C)s2)oc(=O)c1OC [Compound 32, 5-methoxy-4-(3-methoxypropylamino)-N-(5-(5-methyl-1H-pyrazol-1-yl)-1,3,4-thiadiazol-2-yl)-6-oxo-6H-pyran-2-carboxamide]
26 | 0.01 to 0.03 |  | COc1c(N2CCC(CO)CC2)cc(C(=O)Nc2nnc(-n3nccc3C)s2)oc1=O [Compound 12, 4-(4-(hydroxymethyl)piperidin-1-yl)-3-methoxy-N-(5-(5-methyl-1H-pyrazol-1-yl)-1,3,4-thiadiazol-2-yl)-2-oxo-2H-pyran-6-carboxamide]
27 | 0.01 to 0.03 |  | COc1c(N2CC[C@H](CO)C2)cc(C(=O)Nc2nnc(-n3nccc3C)s2)oc1=O [Compound 58, (S)-4-(3-(hydroxymethyl)pyrrolidin-1-yl)-3-methoxy-N-(5-(5-methyl-1H-pyrazol-1-yl)-1,3,4-thiadiazol-2-yl)-2-oxo-2H-pyran-6-carboxamide]
